What follows are compounds tested against DCN1 protein (Homo sapiens (Human), UniProt Q96GG9) (assay: Intact protein MS analysis with the RapidFire-TOF system (covalent adduct formation)). Settings: 400 nM DCN1, incubated at room temperature for 3 hours.
Type: binding
Description: (§1) DCN1 protein, His-TEV-DCN1, were expressed in E. Coli. The His-tagged protein was first purified with an Ni-NTA column. The His-tag was cleaved using His-tag TEV protease and the His-tags were removed using a second Ni-NTA column. Protein purity was verified with SDS-PAGE and intact MS. DCN1 was dissolved in a buffer containing 25 mM Tris-HCl, 200 mM NaCl, and 1 mM DTT at 400 nM. 11 concentrations of compounds were added to the DCN1 solution and incubated at room temperature for 3 hours, unless otherwise specified. The reaction plates were quenched by adding 0.2% formic acid. Quenched assay plates were analyzed with an Agilent RapidFire 360 system connected to an Agilent 6545 Q-TOF mass spectrometer equipped with an AJS source. 10 μL of sample volume was loaded onto a custom packed cartridge (4 μL, PLRP-S 30 μm/1000 Å pore; Optimize Technologies) with loading buffer (ddH2O with 0.09% (vol/vol) formic acid and 0.01% (vol/vol) trifluoroacetic acid; 1.25 ml/min) for 6 seconds before being eluted directly into the mass spectrometer in elution buffer (80% acetonitrile with 0.09% (vol/vol) formic acid and 0.01% (vol/vol) trifluoroacetic acid; 0.5 ml/min) for 7 seconds. The cartridge was re-equilibrated with loading buffer for 1 second before collection of the next sample. The Q-TOF was operated in TOF-only positive ionization mode set to the following parameters: Gas Temp=350 C, Drying Gas=7 l/min, Nebulizer=50 psi, Sheath Gas Temp=400 C, Sheath Gas Flow=12 l/min, VCap=4000 V, Nozzle Voltage=1000 V, Fragmentor=125 V, Skimmer=65 V and Oct 1 RF Vpp=750V. Raw MS data files were deconvoluted and analyzed using the Agilent MassHunter Bioconfirm software package to identify both parent protein and expected compound adduct mass signatures.
An MS assay was performed to evaluate the ability of the compounds to covalently modify DCN-1.
as §1, with “Vcap=4000” for “VCap=4000”

Sequence of DCN1 protein (Q96GG9 whole entry): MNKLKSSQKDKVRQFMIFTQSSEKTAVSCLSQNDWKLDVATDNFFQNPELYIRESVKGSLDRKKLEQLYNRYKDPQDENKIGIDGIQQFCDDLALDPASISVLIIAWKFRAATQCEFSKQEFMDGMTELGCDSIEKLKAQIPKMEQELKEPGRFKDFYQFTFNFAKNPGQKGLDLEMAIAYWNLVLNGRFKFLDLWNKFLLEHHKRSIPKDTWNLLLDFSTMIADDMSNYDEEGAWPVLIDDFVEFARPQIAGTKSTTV

| Emax | SMILES | % Adduct Formation (MS Emax) |
| --- | --- | --- |
| 0 to 30% | CCN1C(=O)[C@@H](NC(=O)c2cccc(C(F)(F)F)c2)[C@@H](c2cccc(NC(=O)/C=C/CN3CCOCC3)c2)c2c(C)nn(-c3ccccc3)c21 (racemic) [Compound I-205] | – |
| – | CCN1C(=O)[C@H](NC(=O)c2cccc(C(F)(F)F)c2)[C@@H](c2ccccc2NC(=O)CCl)c2cnn(-c3ccccc3)c21 [Compound I-178, N-((4S,5R)-4-(2-(2-chloroacetamido)phenyl)-7-ethyl-6-oxo-1-phenyl-4,5,6,7-tetrahydro-1H-pyrazolo[3,4-b]pyridin-5-yl)-3-(trifluoromethyl)benzamide] | + (MS Emax % adduct formation greater than or equal to 0.0 and less than or equal to 30.0) |
| – | CCN1C(=O)[C@H](NC(=O)c2cccc(C(F)(F)F)c2)[C@@H](c2ccccc2NC(=O)[C@H](C)Cl)c2c(C)nn(-c3ccccc3)c21 (mixture of isomers) [Compound I-181] | ++ (MS Emax % adduct formation greater than 30.0 and less than or equal to 80.0) |
| 80 to 100% | CCN1C(=O)[C@@H](NC(=O)c2cccc(C(F)(F)F)c2)[C@H](c2ccccc2NC(=O)CCl)c2cnn(-c3ccccc3)c21 [Compound I-197, N-((4R,5S)-4-(2-(2-chloroacetamido)phenyl)-7-ethyl-6-oxo-1-phenyl-4,5,6,7-tetrahydro-1H-pyrazolo[3,4-b]pyridin-5-yl)-3-(trifluoromethyl)benzamide] | – |
| 80 to 100% | C=CS(=O)(=O)Nc1ccccc1[C@H]1c2cnn(-c3ccccc3)c2N(CC)C(=O)[C@@H]1NC(=O)c1cccc(C(F)(F)F)c1 (racemic) [Compound I-166] | – |
| 30 to 80% | CC#CC(=O)Nc1cccc([C@H]2c3c(C)nn(-c4ccccc4)c3N(CC)C(=O)[C@@H]2NC(=O)c2cccc(C(F)(F)F)c2)c1 (racemic) [Compound I-193] | – |
| 0 to 30% | CCN1C(=O)[C@H](NC(=O)c2cccc(C(F)(F)F)c2)[C@@H](c2ccccc2NS(=O)(=O)CCl)c2cnn(-c3ccccc3)c21 (racemic) [Compound I-175] | – |
| 30 to 80% | C#CC(=O)Nc1cccc([C@H]2c3c(C)nn(-c4ccccc4)c3N(CC)C(=O)[C@H]2NC(=O)c2cccc(C(F)(F)F)c2)c1 (racemic) [Compound I-173] | – |
| 80 to 100% | C#CC(=O)Nc1cccc([C@H]2c3c(C)nn(-c4ccccc4)c3N(CC)C(=O)[C@@H]2NC(=O)c2cccc(C(F)(F)F)c2)c1 (racemic) [Compound I-207] | – |
| 0 to 30% | CCN1C(=O)[C@@H](NC(=O)c2cccc(C(F)(F)F)c2)[C@@H](c2cccc(NC(=O)/C=C/CN(C)C)c2)c2c(C)nn(-c3ccccc3)c21 (racemic) [Compound I-192] | – |
| – | CCN1C(=O)[C@H](NC(=O)c2cccc(C(F)(F)F)c2)[C@@H](c2ccccc2NC(=O)[C@H](C)Cl)c2c(C)nn(-c3ccccc3)c21 (mixture of isomers) [Compound I-182] | + (MS Emax % adduct formation greater than or equal to 0.0 and less than or equal to 30.0) |
| 0 to 30% | CCN1C(=O)[C@@H](NC(=O)c2cccc(C(F)(F)F)c2)[C@@H](c2cccc(NC(=O)CCl)c2)c2c(C)nn(-c3ccccc3)c21 (racemic) [Compound I-203] | – |
| 0 to 30% | CCN1C(=O)[C@@H](NC(=O)c2cccc(C(F)(F)F)c2)[C@@H](c2cccc(NC(=O)COc3c(F)c(F)cc(F)c3F)c2)c2c(C)nn(-c3ccccc3)c21 (racemic) [Compound I-206] | – |
| 0 to 30% | CCN1C(=O)[C@H](NC(=O)c2cccc(C(F)(F)F)c2)[C@@H](c2ccccc2NC(=O)/C=C/CN(C)C)c2cnn(-c3ccccc3)c21 (racemic) [Compound I-196] | – |
| 30 to 80% | C=CS(=O)(=O)Nc1cccc([C@H]2c3c(C)nn(-c4ccccc4)c3N(CC)C(=O)[C@H]2NC(=O)c2cccc(C(F)(F)F)c2)c1 (racemic) [Compound I-186] | – |
| 0 to 30% | CCN1C(=O)[C@H](NC(=O)c2cccc(C(F)(F)F)c2)[C@@H](c2ccc(F)cc2NC(=O)CC#N)c2cnn(-c3ccccc3)c21 (racemic) [Compound I-187] | – |

| Emax | SMILES | % Adduct Formation (MS Emax) |
| --- | --- | --- |
| 80 to 100% | C=CS(=O)(=O)Nc1cccc([C@H]2c3c(C)nn(-c4ccccc4)c3N(CC)C(=O)[C@@H]2NC(=O)c2cccc(C(F)(F)F)c2)c1 (racemic) [Compound I-5] | – |
| 0 to 30% | CCN1C(=O)[C@H](NC(=O)c2cccc(C(F)(F)F)c2)[C@@H](c2ccccc2NC(=O)COc2c(F)c(F)cc(F)c2F)c2cnn(-c3ccccc3)c21 (racemic) [Compound I-200] | – |
| 0 to 30% | CCN1C(=O)[C@H](NC(=O)c2cccc(C(F)(F)F)c2)[C@@H](c2ccccc2NC(=O)[C@@H](C)Cl)c2cnn(-c3ccccc3)c21 (mixture of isomers) [Compound I-185] | – |
| 0 to 30% | CCN1C(=O)[C@@H](NC(=O)c2cccc(C(F)(F)F)c2)[C@@H](c2cccc(NC(=O)C3=CCC3)c2)c2c(C)nn(-c3ccccc3)c21 [Compound I-202] | – |
| 0 to 30% | C/C=C/C(=O)Nc1ccccc1[C@H]1c2cnn(-c3ccccc3)c2N(CC)C(=O)[C@@H]1NC(=O)c1cccc(C(F)(F)F)c1 (racemic) [Compound I-189] | – |
| 30 to 80% | C=CC(=O)Nc1ccccc1[C@H]1c2cnn(-c3ccccc3)c2N(CC)C(=O)[C@@H]1NC(=O)c1cccc(C(F)(F)F)c1 (racemic) [Compound I-190] | – |
| – | CCN1C(=O)[C@H](NC(=O)c2cccc(C(F)(F)F)c2)[C@@H](c2ccccc2NC(=O)CCl)c2cnn(-c3ccccc3)c21 (racemic) [Compound I-170] | +++ (MS Emax % adduct formation greater than 80.0 and less than or equal to 100.0) |
| 0 to 30% | CCN1C(=O)[C@H](NC(=O)c2cccc(C(F)(F)F)c2)[C@@H](c2ccccc2NC(=O)C(Cl)Cl)c2cnn(-c3ccccc3)c21 (racemic) [Compound I-198] | – |
| 0 to 30% | C=C(F)C(=O)Nc1ccccc1[C@H]1c2cnn(-c3ccccc3)c2N(CC)C(=O)[C@@H]1NC(=O)c1cccc(C(F)(F)F)c1 (racemic) [Compound I-199] | – |
| 0 to 30% | CCN1C(=O)[C@H](NC(=O)c2cccc(C(F)(F)F)c2)[C@@H](c2ccccc2NC(=O)C2=CCC2)c2cnn(-c3ccccc3)c21 (racemic) [Compound I-195] | – |
| – | C=C(CN1CCOCC1)C(=O)Nc1cccc([C@H]2c3c(C)nn(-c4ccccc4)c3N(CC)C(=O)[C@H]2NC(=O)c2cccc(C(F)(F)F)c2)c1 (racemic) [Compound I-172] | + (MS Emax % adduct formation greater than or equal to 0.0 and less than or equal to 30.0) |
| 0 to 30% | C=C(C)C(=O)Nc1ccccc1[C@H]1c2c(C)nn(-c3ccccc3)c2N(CC)C(=O)[C@@H]1NC(=O)c1cccc(C(F)(F)F)c1 (racemic) [Compound I-165] | – |
| 0 to 30% | CCN1C(=O)[C@H](NC(=O)c2cccc(C(F)(F)F)c2)[C@@H](c2cccc(NS(=O)(=O)CCl)c2)c2c(C)nn(-c3ccccc3)c21 (racemic) [Compound I-209] | – |
| 80 to 100% | CCN1C(=O)[C@@H](NC(=O)c2cccc(C(F)(F)F)c2)[C@@H](c2ccccc2NC(=O)CCl)c2c(C)nn(-c3ccccc3)c21 (racemic) [Compound I-191] | – |
| 80 to 100% | CCN1C(=O)[C@H](NC(=O)c2cccc(C(F)(F)F)c2)[C@@H](c2ccccc2NC(=O)/C=C/C(=O)OC)c2cnn(-c3ccccc3)c21 (racemic) [Compound I-167] | – |
| 0 to 30% | CCN1C(=O)[C@H](NC(=O)c2cccc(C(F)(F)F)c2)[C@@H](c2cccc(NC(=O)COc3c(F)c(F)cc(F)c3F)c2)c2c(C)nn(-c3ccccc3)c21 (racemic) [Compound I-171] | – |

| SMILES | Emax | % Adduct Formation (MS Emax) |
| --- | --- | --- |
| CCN1C(=O)[C@H](NC(=O)c2cccc(C(F)(F)F)c2)[C@@H](c2cccc(NC(=O)[C@H](C)Br)c2)c2c(C)nn(-c3ccccc3)c21 (mixture of isomers) [Compound I-180] | 80 to 100% | – |
| CCN1C(=O)[C@H](NC(=O)c2cccc(C(F)(F)F)c2)[C@@H](c2ccccc2NC(=O)CCl)c2c(C)nn(-c3ccccc3)c21 (racemic) [Compound I-208] | 80 to 100% | – |

Reference: patent US12435087B2, “Modulators of DCN-1 and methods of use thereof” (Cellarity, Inc., priority 2023, dated 2025)
